The source of these data is patent publication US20030237104A1 (priority 2002, published 2003).

Like-named read-outs stand apart in the source and are kept apart here.

For series [1], the system named is non-Tg mice (CB6F1). To be noted: mouse, in vivo.
In series [2] the test system is CB6F1-HRAS2 mice. The conditions noted are these: in vivo.
The subject of series [3] is Salmonella. To be noted: cited from earlier work.
Series [4] has as its system CB6F1-Tg-rasH2 mice. The conditions noted are these: mouse, in vivo, ip, 75 mg/kg.
The test system of series [5] is rasH2 mice. To be noted: mouse, in vivo, ip; cited from earlier work.
Setting [6] is: CB6F1-HRAS2, mouse, sc, 15 mg/kg.
[7] abbreviates: CB6F1-HRAS2 and non-Tg CB6F1, mouse.
The mark [8] stands for this setting: CB6F1-HRAS2, mouse, ip, 60 mg/kg.

With `O=[N+]([O-])c1cc[n+]([O-])c2ccccc12` [4NQO, 4-Nitroquinoline-1-oxide], the “Malignant Tumors Non-Tg” value in series [1] is on record as “−”. Further, the skin tumors result in series [1] (sc, 15 mg/kg) is on record as “No skin tumors were observed”. For the same molecule, in series [2] (setting [6]), the lung adenocarcinomas result is reported as “observed only in 4NQO-treated CB6F1-HRAS2 mice” and the “squamous cell carcinomas of skin” value is “observed only in 4NQO-treated CB6F1-HRAS2 mice”. In addition, the “mice bearing skin papillomas” value in series [2] (both, CB6F1-HRAS2, mouse, sc, 15 mg/kg) is given as “Approximately 90%”. Besides, in series [2] (mouse), the “Malignant Tumors Tg” value is listed as “+”, the “Rapid tumor response in Tg mice” value is “+” and the “Tumor incidence and/or multiplicity” value is “Tg > non-Tg”. Besides, the “incidence of lung adenoma” value in series [2] (mouse, sc, 15 mg/kg) was “higher than that in corresponding non-Tg mice”.
With `C[N+]([O-])=NCO` [MAM, Methylazoxymethanol], the “Malignant Tumors Non-Tg” value in series [1] was “−”. Further, in series [3], the “Genotoxicity (Salmonella)” value is “+”. In series [2] (mouse), the “Malignant Tumors Tg” value is recorded as “+”; the “Tumor incidence and/or multiplicity” value was “Tg > non-Tg^c”; the “incidence and multiplicity of lung adenoma” value (from here on “incidence and multiplicity”) is recorded as “not significantly higher”. The lung adenoma incidence result in series [2] (mouse, sc, 20 mg/kg) is “similar”.
Consider `CN(N=O)C(N)=O` [MNU, N-Methyl-N-nitrosourea], for which, in series [1], the “Malignant Tumors Non-Tg” value is listed as “−”; the forestomach papillomas entry is reported as “no papillomas”; the “skin papillomas and hyperplasias” value is “did not induce”. In addition, the “Genotoxicity (Salmonella)” value in series [3] is “+”. Further, in series [4], the “incidences of forestomach tumor and malignant lymphoma among institutions” value was “High and consistent incidences”; the “incidences of tumor (squamous cell tumor in forestomach, skin, vagina; Harderian gland carcinoma; lung adenomas; malignant lymphoma)” value is “increased”. In addition, in series [5], the “forestomach and skin papillomas” value is recorded as “higher incidence”. Further, the “forestomach squamous cell carcinoma” value in series [2] (CB6F1-HRAS2, mouse) is on record as “seen only in MNU-treated CB6F1-HRAS2 mice”. In series [2] (mouse), the “Malignant Tumors Tg” value is “+”, the “Rapid tumor response in Tg mice” value is “+”, the “Tumor incidence and/or multiplicity” value is listed as “Tg > non-Tg” and the forestomach papillomas result is “high incidence”. In addition, in series [2] (mouse), the “incidence and multiplicity” value is “not significantly higher”; the “incidence of skin papilloma” value is given as “significantly high incidence”. The incidence of lymphoma entry in series [2] (mouse, 75 mg/kg) was “higher”.
For the molecule `O=P1(N(CCCl)CCCl)NCCCO1` (centres unmarked) [Cyclophosphamide], in series [1], the “Malignant Tumors Non-Tg” value is given as “−”. Besides, the “Genotoxicity (Salmonella)” value in series [3] is “+”. Further, in series [2] (CB6F1-HRAS2, mouse), the “adenocarcinomas (lung)” value is given as “observed only in one cyclophosphamide-treated male CB6F1-HRAS2 mouse”. Also, in series [2] (mouse), the “Malignant Tumors Tg” value was “+”; the “Tumor incidence and/or multiplicity” value is listed as “Tg ÷ non-Tg”; the “incidence and multiplicity” value is “not significantly higher”; the “incidence of lung adenoma” value was “not significantly different from that in corresponding non-Tg mice”. Also, in series [2] (mouse), the lung tumors result is on record as “induced lung tumors” and the “tumors in other organs (bladder, mammary gland, lymphatic systems)” value is “No tumor was observed”.
On to `[O-][n+]1ccc(NO)c2ccccc21` [4HAQO, 4-Hydroxyaminoquinoline-1-oxide], for which, in series [1], the “Malignant Tumors Non-Tg” value was “+”; the “forestomach and skin papillomas” value was “hardly observed”. Also, the “Genotoxicity (Salmonella)” value in series [3] is “+”. Moreover, the “tumors in the exocrine portion of the pancreas” value in series [2] (setting [7]) is recorded as “Neither the 4HAQO-treated Tg nor the non-Tg mice developed tumors”. Also, in series [2] (mouse), the “Malignant Tumors Tg” value was “++”; the “Rapid tumor response in Tg mice” value was “+”; the “Tumor incidence and/or multiplicity” value was “Tg > non-Tg”; the “forestomach and skin papillomas” value is “induced”. In series [2] (mouse), the “other tumors (e.g., leukemias and thymomas)” value was “observed only in the Tg mice”.
Take `S=C1NCCN1` [Ethylene thiourea]: in series [1] (female, CB6F1 (non-Tg)), the “incidence of thyroid adenocarcinoma” value amounted to 4% and the thyroid adenomas incidence is 20%. Besides, the “Malignant Tumors Non-Tg” value in series [1] is on record as “+”. Also, in series [3], the “Genotoxicity (Salmonella)” value is “−” and the “Salmonella mutagenesis assay result” value is “negative”. In addition, in series [2] (female, CB6F1-HRAS2, mouse), the “incidence of thyroid adenocarcinoma” value turned out to be 9% and the thyroid adenomas incidence was found to be 26%. In series [2] (mouse), the “Malignant Tumors Tg” value is on record as “+”, the “Tumor incidence and/or multiplicity” value was “Tg ÷ non-Tg” and the thyroid tumors entry is given as “did not induce”.
In series [1] (CB6F1 (non-Tg), ip, 60 mg/kg), `C=COC(N)=O` [Vinyl carbamate] gave a lung adenomas incidence greater than 90%. In addition, the “Malignant Tumors Non-Tg” value in series [1] is “+”. In series [1] (ip, 60 mg/kg), the “incidence of lung adenocarcinoma” value is “much lower”, the spleen hemangiosarcomas result is given as “none developed” and the “tumor multiplication (lung adenomas)” value is recorded as “lower”. Besides, the “Genotoxicity (Salmonella)” value in series [3] is on record as “+”. In addition, in series [2] (setting [8]), the lung adenocarcinomas incidence was 50%, the lung adenomas incidence was determined as 100% and the “mice bearing spleen hemangiosarcomas” value is listed as “Approximately 90%”. In addition, the liver tumors result in series [2] (setting [7]) is reported as “neither CB6F1-HRAS2 mice nor control non-Tg mice treated with these compounds developed liver tumors”. In series [2] (mouse), the “Malignant Tumors Tg” value is reported as “++”, the “Rapid tumor response in Tg mice” value is reported as “+” and the “Tumor incidence and/or multiplicity” value is “Tg > non-Tg”.
